Assay [1] addresses T1, Ribosomal protein S6 kinase (Homo sapiens) (UniProt P51812+Q9UBS0+O75676+Q15349+O75582+P23443+Q9UK32+Q15418). Description: Inhibition of RPS6 kinase in human HeLa cells assessed as p-RPS6 Ser240/244 phosphorylation level at 5 uM incubated for 6 hrs by SDS-PAGE based chemiluminescence assay. In kind it is cell-based. Further details: scale not given: the % may be the effect or the level left.

In assay [2] the target is T1, Ribosomal protein S6 kinase (Homo sapiens). The assay can be described thus: Inhibition of RPS6 kinase in human HeLa cells assessed as p-RPS6 Ser235/236 phosphorylation level at 5 uM incubated for 6 hrs by SDS-PAGE based chemiluminescence assay. In kind it is cell-based. Further details: scale not given: the % may be the effect or the level left.
In assay [3] the test system is ACHN. The assay can be described thus: Cytotoxic activity against human ACHN bulk cells incubated for 72 hrs by Cell-titer-Glo luminescence assay. In kind it is functional, cell-based.
In assay [4] the test system is ACHN. The assay can be described thus: Cytotoxic activity against human ACHN cancer stem cells incubated for 72 hrs by Cell-titer-Glo luminescence assay. In kind it is functional, cell-based.
The subject of assay [5] is FaDu. The assay can be described thus: Cytotoxic activity against human FADU cancer stem cells incubated for 72 hrs by Cell-titer-Glo luminescence assay. In kind it is functional, cell-based.
In assay [6] the test system is FaDu. Description: Cytotoxic activity against human FADU bulk cells incubated for 72 hrs by Cell-titer-Glo luminescence assay. In kind it is functional, cell-based.
The subject of assay [7] is A549. Description: Cytotoxic activity against human A549 bulk cells incubated for 72 hrs by Cell-titer-Glo luminescence assay. It counts as functional, cell-based. As to conditions: A549, 72 h.
Assay [8] has as its system A549. Description: Cytotoxic activity against human A549 cancer stem cells incubated for 72 hrs by Cell-titer-Glo luminescence assay. In kind it is functional, cell-based. As to conditions: A549, 72 h.
In assay [9] the target is AMP-activated protein kinase, AMPK (Homo sapiens) (UniProt P54646+O43741+P54619+Q9UGJ0+Q9Y478+Q13131+Q9UGI9). Description: Inhibition of AMPK in human HeLa cells assessed as kinase phosphorylation level at 5 uM incubated for 6 hrs by SDS-PAGE based chemiluminescence assay. It counts as cell-based. Further details: scale not given: the % may be the effect or the level left.

Regarding `Cc1[nH]c(/C=C2\C(=O)Nc3c2cccc3-c2csc(-c3ccccc3)n2)c(C)c1C(=O)N1CCN(C)CC1`, the figures for the Activity in [1], in assay [2] and in assay [9] were 32%, 2% and 122%, respectively. In addition, the IC50 in the assay on ACHN [3] came to 15.2 µM; in the assay with ACHN [4], 0.5 µM; with FaDu [5], 2.99 µM; with FaDu [6], 5.41 µM; with A549 [7], 5.41 µM; with A549 [8], 4.19 µM.
On to `Cc1cc(C)c(/C=C2\C(=O)Nc3c2cccc3-c2cncnc2)[nH]1`, for which the results for the Activity in assay [1], in [2] and in [9] were 50%, 51% and 113%, respectively. The IC50 with ACHN [3] amounted to 26.9 µM; in the assay on FaDu [6] it was 28.1 µM; with A549 [7], 25.2 µM.
In the case of `CCN(CC)CCNC(=O)c1c(C)[nH]c(/C=C2\C(=O)Nc3c2cccc3-c2csc(-c3ccccc3)n2)c1C`, the Activity in [1] turned out to be 32%; in [2], 2%; in assay [9], 144%. The IC50 in the assay on ACHN [3] came to 3.2 µM; in the assay with ACHN [4], 0.28 µM; in the assay on FaDu [5], 1.26 µM; in the assay on FaDu [6], 3.75 µM; in the assay on A549 [7] it was 1.96 µM; with A549 [8] it was 1.57 µM.
`CCN(CC)CCNC(=O)c1c(C)[nH]c(/C=C2\C(=O)Nc3ccc(-c4n[nH]c5ccccc45)cc32)c1C`: the figures for the Activity in assay [1], in assay [2] and in [9] were 26%, 4% and 22%, respectively. Besides, the IC50 with ACHN [3] came out at 4.31 µM; with ACHN [4], 1.31 µM; in the assay on FaDu [5], 10.2 µM; in the assay with FaDu [6] it was 2.85 µM; with A549 [7], 3.02 µM; in the assay with A549 [8], 5.65 µM.
For the compound `Cc1[nH]c(/C=C2\C(=O)Nc3ccc(-c4csc(-c5ccccc5)n4)nc32)c(C)c1C(=O)NCCN1CCCC1`, the Activity worked out at 51% in assay [1], 13% in [2] and 41% in [9]. Also, the IC50 came to 1.52 µM with ACHN [3]; 0.4 µM in the assay with ACHN [4]; 0.17 µM in the assay on FaDu [5]; 1.73 µM in the assay on FaDu [6]; 1.43 µM in the assay on A549 [7]; 2.47 µM in the assay on A549 [8].
Regarding `CCN(CC)CCNC(=O)c1c(C)[nH]c(/C=C2\C(=O)Nc3ccc(-c4ccc(-c5cccs5)s4)cc32)c1C`, the Activity in [1] stood at 41%; in assay [2], 5%; in [9], 21%. Besides, the values for the IC50 in the assay on FaDu [5] and with FaDu [6] were 0.83 µM and 2.51 µM, respectively.
On to `CCN(CC)CCNC(=O)c1c(C)[nH]c(/C=C2\C(=O)Nc3cc(-c4ccc(-c5ccccc5)s4)ccc32)c1C`, for which the Activity in assay [1] was 56%; in [2], 5%; in assay [9] it was 150%. Besides, the IC50 in the assay on FaDu [5] worked out at 30.5 µM.
With `CCN(CC)CCNC(=O)c1c(C)[nH]c(/C=C2\C(=O)Nc3cc(-c4oc(-c5ccccc5)nc4C)ccc32)c1C`, the Activity is 43% in assay [1], 4% in [2] and 151% in [9]. Besides, the IC50 came to 2.97 µM with ACHN [3]; 1.65 µM with ACHN [4]; 8.09 µM with FaDu [5]; 3.55 µM in the assay with FaDu [6]; 7.49 µM with A549 [7].
On to `Cc1[nH]c(/C=C2\C(=O)Nc3cc(-c4csc(-c5ccccc5)n4)ccc32)c(C)c1C(=O)N1CCOCC1`, for which the Activity in assay [1] is 44%; in assay [2], 4%; in [9] it was 118%. This compound had an IC50 in the assay with FaDu [5] of 41.9 µM.
As for `CCN(CC)CCNC(=O)c1c(C)[nH]c(/C=C2\C(=O)Nc3c2cccc3-c2ccncc2)c1C`, the Activity in assay [1] was 65%; in [2], 60%; in [9], 56%. The IC50 was determined as 6.39 µM in the assay on ACHN [3]; 4.99 µM in the assay on ACHN [4]; 4.41 µM in the assay on FaDu [5]; 6.74 µM in the assay on FaDu [6]; 6.85 µM in the assay on A549 [7]; 12.6 µM in the assay on A549 [8].
For the compound `COc1ncccc1-c1cccc2c1/C(=C/c1[nH]c(C)cc1C)C(=O)N2`, the Activity in [1] worked out at 67%; in assay [2] it was 67%; in assay [9], 105%. This compound came in with an IC50 in the assay with FaDu [6] of 22.6 µM.
For the compound `CCN(CC)CCNC(=O)c1c(C)[nH]c(/C=C2\C(=O)Nc3c2cccc3-c2cncnc2)c1C`, the values for the Activity in assay [1], in assay [2] and in [9] were 72%, 71% and 60%, respectively. Also, the IC50 with ACHN [3] turned out to be 16.4 µM; in the assay with ACHN [4], 10.9 µM; in the assay with FaDu [5], 6.73 µM; in the assay with FaDu [6] it was 36.3 µM; with A549 [7], 21.5 µM; in the assay on A549 [8], 27.5 µM.
Take `CCN(CC)CCNC(=O)c1c(C)[nH]c(/C=C2\C(=O)Nc3ccc(-c4ccc(-c5ccccc5)cn4)cc32)c1C`: the Activity in [1] amounted to 82%; in assay [2] it was 61%; in assay [9], 118%. For the same compound, the IC50 with ACHN [3] amounted to 5.38 µM; in the assay with ACHN [4], 0.65 µM; in the assay on FaDu [5], 4.81 µM; with FaDu [6], 2.72 µM; in the assay on A549 [7] it was 2.02 µM; in the assay with A549 [8], 3.79 µM.
`COc1ccc(-c2cccc3c2NC(=O)/C3=C\c2[nH]c(C)cc2C)cn1`: the Activity stood at 59% in [1], 63% in [2] and 91% in assay [9]. Moreover, the IC50 with ACHN [3] worked out at 28.3 µM; in the assay on FaDu [6], 28.4 µM; in the assay with A549 [7], 24.4 µM; in the assay on A549 [8], 43.4 µM.
Consider `Cc1[nH]c(/C=C2\C(=O)Nc3cccc(-c4ccc(-c5ccccc5)cc4)c32)c(C)c1C(=O)N1CCN(C)CC1`, for which the Activity came to 36% in assay [1], 2% in assay [2] and 105% in [9]. Besides, the IC50 was determined as 14.9 µM in the assay with ACHN [3]; 1.21 µM in the assay with FaDu [5]; 7.56 µM in the assay with FaDu [6]; 21.5 µM with A549 [7]; 5.76 µM with A549 [8].
In the case of `Cc1cncc(-c2cccc3c2NC(=O)/C3=C\c2[nH]c(C)cc2C)c1`, the figures for the Activity in [1], in assay [2] and in assay [9] were 75%, 74% and 103%, respectively. The IC50 with ACHN [3] was found to be 16 µM; in the assay on ACHN [4] it was 32 µM; in the assay on FaDu [6] it was 26.4 µM; with A549 [7] it was 21.2 µM; in the assay with A549 [8] it was 32 µM.
Turning to `COc1ncc(-c2cccc3c2NC(=O)/C3=C\c2[nH]c(C)cc2C)cn1`, the figures for the Activity in [1], in [2] and in assay [9] were 54%, 57% and 96%, respectively. The IC50 with ACHN [3] was determined as 21.9 µM; in the assay on ACHN [4], 17.5 µM; with FaDu [6], 20.8 µM; with A549 [7], 17.7 µM; in the assay on A549 [8], 34.7 µM.
For `Cc1cc(C)c(/C=C2\C(=O)Nc3c2cccc3-c2ccncc2)[nH]1`, the Activity came out at 65% in assay [1], 68% in assay [2] and 83% in [9]. Besides, the IC50 in the assay on A549 [7] turned out to be 23.5 µM.
With `CCN(CC)CCNC(=O)c1c(C)[nH]c(/C=C2\C(=O)Nc3ccc(-c4nc(-c5ccccc5)cs4)cc32)c1C`, the Activity in [1] stood at 64%; in assay [2], 21%; in [9] it was 12%. For the same compound, the IC50 with ACHN [3] was determined as 1.64 µM; in the assay with FaDu [5] it was 0.27 µM; in the assay on FaDu [6] it was 1.18 µM; in the assay on A549 [7] it was 4.74 µM; with A549 [8] it was 4.28 µM.
For the compound `Cc1cc(C)c(/C=C2\C(=O)Nc3cccc(-c4cncnc4)c32)[nH]1`, the Activity amounted to 43% in assay [1], 44% in assay [2] and 198% in [9]. The IC50 turned out to be 16.8 µM in the assay on ACHN [3], 39.7 µM in the assay on FaDu [6] and 16.3 µM with A549 [7].
Consider `Cc1cc(C)c(/C=C2\C(=O)Nc3cccc(-c4ccc5cc[nH]c5c4)c32)[nH]1`, for which the Activity in assay [1] worked out at 35%; in assay [2] it was 36%; in assay [9], 27%. Moreover, the IC50 turned out to be 20.4 µM in the assay with ACHN [3]; 18.9 µM in the assay on ACHN [4]; 16.4 µM with FaDu [6]; 16.6 µM in the assay on A549 [7]; 20.2 µM in the assay on A549 [8].
As for `Cc1[nH]c(/C=C2\C(=O)Nc3cc(-c4ccc(-c5ccccc5)s4)ccc32)c(C)c1C(=O)N1CCN(C)CC1`, the Activity in assay [1] stood at 68%; in [2], 36%; in [9], 108%.
Consider `Cc1cc(C)c(/C=C2\C(=O)Nc3c2cccc3-c2cncc3ccccc23)[nH]1`, for which the figures for the Activity in assay [1], in assay [2] and in assay [9] were 83%, 86% and 108%, respectively. The IC50 amounted to 21 µM in the assay with ACHN [3], 25.8 µM in the assay on FaDu [6] and 19.7 µM in the assay on A549 [7].
With `COc1ncc(-c2cccc3c2/C(=C/c2[nH]c(C)cc2C)C(=O)N3)cn1`, the Activity in [1] worked out at 75%; in assay [2], 77%; in assay [9] it was 145%. Besides, the results for the IC50 in the assay on ACHN [3], in the assay on FaDu [6] and with A549 [7] were 28.1 µM, 35.3 µM and 21.1 µM, respectively.
Regarding `Cc1nc(-c2ccccc2)oc1-c1ccc2c(c1)NC(=O)/C2=C\c1[nH]c(C)c(C(=O)N2CCN(C)CC2)c1C`, the Activity in [1] came to 21%; in assay [2], 2%; in [9] it was 103%. In addition, the IC50 with ACHN [4] was determined as 0.5 µM; in the assay on FaDu [5], 1.6 µM.
Regarding `COC(=O)c1c(C)[nH]c(/C=C2\C(=O)Nc3ccc(-c4csc(C5CCNCC5)n4)cc32)c1C`, the results for the Activity in assay [1], in [2] and in assay [9] were 83%, 70% and 79%, respectively. Further, the IC50 came out at 0.52 µM in the assay with ACHN [3]; 0.22 µM in the assay with FaDu [5]; 0.69 µM in the assay with FaDu [6]; 0.7 µM in the assay on A549 [7]; 2.48 µM in the assay on A549 [8].

Usually IC50 stands for the concentration that inhibits the measured activity by half.

The values above are taken from ChEMBL document CHEMBL3727348, “3-(aryl or heteroaryl) methyleneindolin-2-one derivatives as inhibitors of cancer stem cell pathway kinases for the treatment of cancer” (2014).
